Earlier results, collected in patent publication US20220211667A1, “COMPOSITION FOR THE INTRAPERITONEAL TREATMENT OF SECONDARY BACTERIAL PERITONITIS WITH REDUCTION OF COMPLICATIONS” (priority 2019, published 2022).

How the values were obtained:
[1] = tested on: strains of organisms from the susceptible genera
[2] = tested on: polymorphonuclear leukocytes
Pseudomonas aeruginosa = details: maximum, for Pseudomonas aeruginosa; controlled clinical trials, oral or intravenous
[3] = not given; remark: listed apart in the source
[4] = tested on: resistant bacterial strains; details: overall; controlled clinical trials, oral or intravenous
[5] = intraperitoneal; third and last day of treatment

## C[C@@H]1O[C@@H]1P(=O)(O)O [Fosfomycin disodium]
other
  solubility in water: highly soluble in water
  pH of 5% solution: 9.0-10.5

## C[C@@H]1O[C@@H]1P(=O)(O)O.NC(CO)(CO)CO [Fosfomycin trometamol]
other
  solubility in water: highly soluble in water
  pH of 5% solution: 3.5-5.5

## C[C@@H]1O[C@@H]1P(=O)(O)O [fosfomycin, [(2R,3S)-3-methyloxiran-2-yl]phosphonic acid]
[1]; early studies, various antibiotic combinations
  tested strains showing synergistic effect: 70-100%
[1]; subsequent more extensive studies
  synergy rates: 36-74%
[2]
  concentration in polymorphonuclear leukocytes relative to extracellular fluid: twice those of the extracellular fluid
Pseudomonas aeruginosa
  appearance of resistant bacterial strains: 15%
[3]; evidence of allergy
  eosinophilia: 0.2%
  transient rashes: 0.3 % of cases
[3]; in vivo
  transiently raised liver enzymes: 0.3 % of cases
[4]
  appearance of resistant bacterial strains: 3.0%

## GM-CSF: cytokine of the colony-stimulating factor family; mature human protein of 127 amino-acid residues, SEQ ID NO: 1
[5]
  patients with minor flu-like symptoms: 2 of 8
